{"source": "patent US9144595B2", "about": "“APLs for treating arthritis” (University of Tennessee Research Foundation, priority 2009, dated 2015)", "key": {"Zap-70": {"system": "Zap-70", "experiment": "Zap-70 phosphorylation in CD4+ T cells of DR1/TCR transgenic mice (flow cytometry)", "format": "cell-based, mouse", "details": "APCs prepulsed with peptide; data not shown"}, "DR1 Transgenic mice [1]": {"system": "DR1 Transgenic mice", "experiment": "Acute toxicity study of HC Peptide 1 in DR1 transgenic mice", "format": "in vivo, mouse"}, "DR1 Transgenic mice [2]": {"system": "DR1 Transgenic mice", "experiment": "Acute toxicity study of HC Peptide 1 in DR1 transgenic mice", "format": "in vivo, mouse", "details": "for Weight of Mice / Weight of Livers / Weight of Spleens: individual mice, HC Peptide 1 (100 μg) Fed; for Weight of Livers / Weight of Spleens: at sacrifice", "description": "Eight DR1 transgenic mice (C57 BL/10 containing a human transgene for DR1) were studied in these acute toxicity studies. The four female litter mates were nine weeks old at the time the studies were initiated. Two female mice and two male mice were randomly assigned to the control group and two female and two male mice were randomly assigned to be treated with HC Peptide 1. Mice were gavaged once daily for seven days with 100 μl IV saline containing 100 μg HC Peptide1. Mice were weighed before treatment and every two days. Mice were examined daily for general healthy appearance, glossy coat, ruffling of hair, lethargy, ad lib behavior, shivering or vigor. At sacrifice on day 7, blood was collected for complete blood count and chemistries were performed by the Clinical Pathology Services, Charles River Laboratories, 251 Ballardvale Street, Wilmington, Mass. 01887. Food and water consumption were monitored in each cage. Liver and spleen were weighed at sacrifice of each mouse. Sections of liver, spleen, kidney, heart, lung, stomach, and small and large intestine, were placed in 10% formalin and processed for routine H and E sections by the Histology Laboratory at the Memphis VAMC. Mice were housed in an IACUC approved facility with 12 hours light and 12 hours darkness.\nChanges in body weight over the six days mice were gavaged with 100× the human HC Peptide 1 dose were similar to mice gavaged with IV saline (See Table IX). Water and food consumption were similar between HC Peptide 1 treated and mice gavaged with IV saline (Table X). Upon sacrifice at day 7, the weight of livers and spleens were similar between mice gavaged with 100× the human dose of HC Peptide 1 and mice gavaged with IV saline (See Table XI). The complete blood counts (CBC) after 6 days gavage of DRB1*0401 transgenic mice with 100× the human HC Peptide 1 dose were similar to litter mates gavaged with IV saline. Plasma chemistries were similar in the […] transgenic mice gavaged with 100× the human dose of HC Peptide 1 compared to litter mates gavaged with IV saline."}, "RA PBMC": {"system": "RA PBMC", "experiment": "27 cytokines multiplex assay of 48 h RA PBMC culture supernatants", "format": "cell-based, human", "details": "APL A12 10 μg/ml + α1(II) 50 μg/ml, 6 RA patients", "description": "We assessed the ability of APL A12 added to cultures of PBMC to affect production of IFNγ and other Th1 and Th2 cytokines by the cultured PBMC stimulated with α1(II) from 18 RA patients, 16 of whom had known HLA DR B1 haplotypes. 16 of these patients were taking methothexate, 10 NSAIDS and 12 anti-TNF agents. One patient was taking Arava. Isolated PBMC were resuspended in Dulbecco's minimal essential medium containing penicillin (100 U/ml), streptomycin (100 μg/ml), 9% fetal calf serum (FCS), and non-essential amino acids thereafter referred to as “Complete Medium” at a concentration of 4×10^6 cells/ml. Aliquots (0.5 ml) of the cell suspension were dispensed into wells of 48 well tissue culture plates (NUNC, Roskilde, Denmark)."}, "[3]": {"details": "Cage 1 Male (two mice), Days 1-2"}, "[4]": {"details": "Cage 1 Male (two mice), Days 3-4"}, "[5]": {"details": "Cage 1 Male (two mice), Days 5-6"}, "[6]": {"details": "Cage 1 Male (two mice), sum of Days 1-6 (unlabelled line)"}, "[7]": {"details": "Cage 3 Female (two mice), Days 1-2"}, "[8]": {"details": "Cage 3 Female (two mice), Days 3-4"}, "[9]": {"details": "Cage 3 Female (two mice), Days 5-6"}, "[10]": {"details": "Cage 3 Female (two mice), sum of Days 1-6 (unlabelled line)"}}, "note": "Where “and” joins values, the source holds several entries; their conditions need not be identical. Identical values can stand only once. Entries after “also recorded” stand apart in the source; their conditions may differ.", "data": [{"sequence": "LGPKGQTGEBGIAGAKGDQGPKGEBGPA [APL A12]", "values": [{"measurement": "Zap-70 phosphorylation", "setting": "Zap-70", "value": "little effect"}, {"measurement": "complete blood counts (CBC)", "setting": "DR1 Transgenic mice [1]; after 6 days gavage with 100× the human dose vs IV saline", "value": "similar"}, {"measurement": "Histologic assessment of internal organs (livers, spleens, kidneys, hearts, lungs)", "setting": "DR1 Transgenic mice [1]; gavaged for six days with 100× human dose vs IV saline, listed as HC Peptide 1", "value": "no difference; also recorded: did not reveal abnormalities"}, {"measurement": "clinical signs of illness, changes in complete blood counts or liver and renal chemistries", "setting": "DR1 Transgenic mice [1]; oral, 100× the proposed human dose daily for six days", "value": "not associated"}, {"measurement": "Changes in body weight", "setting": "DR1 Transgenic mice [1]; over the six days gavaged with 100× the human dose, vs IV saline", "value": "similar"}, {"measurement": "Plasma chemistries", "setting": "DR1 Transgenic mice [2]; 100× the human dose vs IV saline", "value": "similar"}, {"measurement": "general appearance or behavior", "setting": "DR1 Transgenic mice [2]; 100× the proposed highest human dose by gavage, compared to littermates gavaged with IV saline", "value": "no differences"}, {"measurement": "Chow Consumed", "setting": "DR1 Transgenic mice [2]; [3]", "value": 13.3, "unit": "GMS"}, {"measurement": "Water Consumed", "setting": "DR1 Transgenic mice [2]; [3]", "value": 15, "unit": "MI"}, {"measurement": "Chow Consumed", "setting": "DR1 Transgenic mice [2]; [4]", "value": 10.5, "unit": "GMS"}, {"measurement": "Water Consumed", "setting": "DR1 Transgenic mice [2]; [4]", "value": 10, "unit": "MI"}, {"measurement": "Chow Consumed", "setting": "DR1 Transgenic mice [2]; [5]", "value": 14.4, "unit": "GMS"}, {"measurement": "Water Consumed", "setting": "DR1 Transgenic mice [2]; [5]", "value": 15, "unit": "MI"}, {"measurement": "Chow Consumed", "setting": "DR1 Transgenic mice [2]; [6]", "value": 38.2, "unit": "GMS"}, {"measurement": "Water Consumed", "setting": "DR1 Transgenic mice [2]; [6]", "value": 40, "unit": "MI"}, {"measurement": "Chow Consumed", "setting": "DR1 Transgenic mice [2]; [7]", "value": 15.7, "unit": "GMS"}, {"measurement": "Water Consumed", "setting": "DR1 Transgenic mice [2]; [7]", "value": 12.5, "unit": "MI"}, {"measurement": "Chow Consumed", "setting": "DR1 Transgenic mice [2]; [8]", "value": 14.2, "unit": "GMS"}, {"measurement": "Water Consumed", "setting": "DR1 Transgenic mice [2]; [8]", "value": 9.5, "unit": "MI"}, {"measurement": "Chow Consumed", "setting": "DR1 Transgenic mice [2]; [9]", "value": 15.3, "unit": "GMS"}, {"measurement": "Water Consumed", "setting": "DR1 Transgenic mice [2]; [9]", "value": 13, "unit": "MI"}, {"measurement": "Chow Consumed", "setting": "DR1 Transgenic mice [2]; [10]", "value": 45.2, "unit": "GMS"}, {"measurement": "Water Consumed", "setting": "DR1 Transgenic mice [2]; [10]", "value": 35, "unit": "MI"}, {"measurement": "Weight of Mice", "setting": "DR1 Transgenic mice [2]; Day 2, female mice", "value": "21.6 GMS and 19.4 GMS"}, {"measurement": "Weight of Mice", "setting": "DR1 Transgenic mice [2]; Day 2, male mice", "value": "22.4 GMS and 21.0 GMS"}, {"measurement": "Weight of Mice", "setting": "DR1 Transgenic mice [2]; Day 4, female mice", "value": "21.0 GMS and 18.6 GMS"}, {"measurement": "Weight of Mice", "setting": "DR1 Transgenic mice [2]; Day 4, male mice", "value": "21.6 GMS and 20.3 GMS"}, {"measurement": "Weight of Mice", "setting": "DR1 Transgenic mice [2]; Day 6, female mice", "value": "21.9 GMS and 19.3 GMS"}, {"measurement": "Weight of Mice", "setting": "DR1 Transgenic mice [2]; Day 6, male mice", "value": "22.7 GMS and 20.9 GMS"}, {"measurement": "Weight of Mice", "setting": "DR1 Transgenic mice [2]; Time 0, female mice", "value": "21.6 GMS and 18.7 GMS"}, {"measurement": "Weight of Mice", "setting": "DR1 Transgenic mice [2]; Time 0, male mice", "value": "22.4 GMS and 20.8 GMS"}, {"measurement": "Weight of Livers", "setting": "DR1 Transgenic mice [2]; female mice", "value": "0.99 GMS and 0.87 GMS"}, {"measurement": "Weight of Spleens", "setting": "DR1 Transgenic mice [2]; female mice", "value": "0.065 GMS and 0.07 GMS"}, {"measurement": "Weight of Livers", "setting": "DR1 Transgenic mice [2]; male mice", "value": "1.14 GMS and 0.9 GMS"}, {"measurement": "Weight of Spleens", "setting": "DR1 Transgenic mice [2]; male mice", "value": "0.09 GMS and 0.06 GMS"}, {"measurement": "weight of livers and spleens", "setting": "DR1 Transgenic mice [2]; sacrifice at day 7, 100× the human dose vs IV saline", "value": "similar"}, {"measurement": "Water and food consumption", "setting": "DR1 Transgenic mice [2]; vs mice gavaged with IV saline", "value": "similar"}, {"measurement": "IL-1ra", "setting": "RA PBMC", "value": "2013 ± 220", "unit": "pg/mL"}, {"measurement": "IL-2", "setting": "RA PBMC", "value": "6 ± 0.9", "unit": "pg/mL"}, {"measurement": "IL-10", "setting": "RA PBMC", "value": "555 ± 104", "unit": "pg/mL"}, {"measurement": "IP-10", "setting": "RA PBMC", "value": "114 ± 91", "unit": "pg/mL"}, {"measurement": "PDGF-bb", "setting": "RA PBMC", "value": "39 ± 25", "unit": "pg/mL"}, {"measurement": "RANTES", "setting": "RA PBMC", "value": "750 ± 183", "unit": "pg/mL"}, {"measurement": "TNFα", "setting": "RA PBMC", "value": "84 ± 17", "unit": "pg/mL"}]}]}
